For one compound, Activity and inhibition results are on record in ChEMBL document CHEMBL5226379, “Hypouricemic Actions of the Pericarp of Mangosteen in Vitro and in Vivo” (J Nat Prod, 2023).

Assay [1] concerns Rattus norvegicus. Briefly: Anti-hyperuricemic activity against potassium oxonate-induced hyperuricemic Sprague-Dawley rat model assessed as glomerular load of urate measured per body surface area of 0.0311 m2 at 4 mg/kg, po pre-administered via gavage twice daily for 5 times followed by potassium oxonate injection for 1 hrs prior to last dose and measured after 3 hrs. The assay is classed as functional. As to conditions: time 123 hrs.

Assay [2] addresses T1, Xanthine dehydrogenase/oxidase (Homo sapiens, UniProt P47989). Briefly: Inhibition of XOD (unknown origin) using xanthine as substrate assessed as inhibition of uric acid generation at 50 mg/L preincubated for 15 mins followed by xanthine addition and measured by spectrophotometric analysis relative to control.
For assay [3], the system named is Rattus norvegicus. Nature of the assay: Anti-hyperuricemic activity against potassium oxonate-induced hyperuricemic Sprague-Dawley rat model assessed as urinary urate level at 1 mg/kg, po pre-administered via gavage twice daily for 5 times followed by potassium oxonate injection for 1 hrs prior to last dose and measured after 3 hrs. Type of assay: functional. The conditions noted are these: time 123 hrs.

In assay [4] the test system is Mus musculus. Briefly: Hypouricemic activity in potassium oxonate-induced hyperuricemic Kunming mouse model assessed as decrease in serum uric acid level at 4 mg/kg, IG by phosphotungstic acid method. Type of assay: functional, organism-based. As to conditions: time <= 6.0 hrs, TDE = time-dependent effect.
In assay [5] the target is T1, Xanthine dehydrogenase/oxidase. Briefly: Inhibition of XOD (unknown origin) using xanthine as substrate assessed as inhibition of uric acid generation at 150 mg/L preincubated for 15 mins followed by xanthine addition and measured by spectrophotometric analysis relative to control.
The species named for assay [6] is Homo sapiens. Briefly: Inhibition of uricase (unknown origin) using uric acid as substrate at 75 mg/L preincubated with compounds for 15 mins followed by uric acid addition.
Assay [7] concerns Rattus norvegicus. Briefly: Anti-hyperuricemic activity against potassium oxonate-induced hyperuricemic Sprague-Dawley rat model assessed as clearance of urate measured per body surface area of 0.0311 m2 at 2 mg/kg, po pre-administered via gavage twice daily for 5 times followed by potassium oxonate injection for 1 hrs prior to last dose and measured after 3 hrs. The assay is classed as functional. As to conditions: time 123 hrs.

Assay [8] deals with Rattus norvegicus. Briefly: Anti-hyperuricemic activity against potassium oxonate-induced hyperuricemic Sprague-Dawley rat model assessed as urinary creatinine level at 2 mg/kg, po pre-administered via gavage twice daily for 5 times followed by potassium oxonate injection for 1 hrs prior to last dose and measured after 3 hrs. Type of assay: functional. As to conditions: time 123 hrs.

The subject of assay [9] is Rattus norvegicus. Nature of the assay: Anti-hyperuricemic activity against potassium oxonate-induced hyperuricemic Sprague-Dawley rat model assessed as serum creatinine level at 1 mg/kg, po pre-administered via gavage twice daily for 5 times followed by potassium oxonate injection for 1 hrs prior to last dose and measured after 3 hrs. The assay is classed as functional. The conditions noted are these: time 123 hrs.

For assay [10], the system named is Rattus norvegicus. Briefly: Anti-hyperuricemic activity against potassium oxonate-induced hyperuricemic Sprague-Dawley rat model assessed as urinary urate level at 4 mg/kg, po pre-administered via gavage twice daily for 5 times followed by potassium oxonate injection for 1 hrs prior to last dose and measured after 3 hrs. The assay is classed as functional. As to conditions: time 123 hrs.

T1 sequence (P47989 whole entry): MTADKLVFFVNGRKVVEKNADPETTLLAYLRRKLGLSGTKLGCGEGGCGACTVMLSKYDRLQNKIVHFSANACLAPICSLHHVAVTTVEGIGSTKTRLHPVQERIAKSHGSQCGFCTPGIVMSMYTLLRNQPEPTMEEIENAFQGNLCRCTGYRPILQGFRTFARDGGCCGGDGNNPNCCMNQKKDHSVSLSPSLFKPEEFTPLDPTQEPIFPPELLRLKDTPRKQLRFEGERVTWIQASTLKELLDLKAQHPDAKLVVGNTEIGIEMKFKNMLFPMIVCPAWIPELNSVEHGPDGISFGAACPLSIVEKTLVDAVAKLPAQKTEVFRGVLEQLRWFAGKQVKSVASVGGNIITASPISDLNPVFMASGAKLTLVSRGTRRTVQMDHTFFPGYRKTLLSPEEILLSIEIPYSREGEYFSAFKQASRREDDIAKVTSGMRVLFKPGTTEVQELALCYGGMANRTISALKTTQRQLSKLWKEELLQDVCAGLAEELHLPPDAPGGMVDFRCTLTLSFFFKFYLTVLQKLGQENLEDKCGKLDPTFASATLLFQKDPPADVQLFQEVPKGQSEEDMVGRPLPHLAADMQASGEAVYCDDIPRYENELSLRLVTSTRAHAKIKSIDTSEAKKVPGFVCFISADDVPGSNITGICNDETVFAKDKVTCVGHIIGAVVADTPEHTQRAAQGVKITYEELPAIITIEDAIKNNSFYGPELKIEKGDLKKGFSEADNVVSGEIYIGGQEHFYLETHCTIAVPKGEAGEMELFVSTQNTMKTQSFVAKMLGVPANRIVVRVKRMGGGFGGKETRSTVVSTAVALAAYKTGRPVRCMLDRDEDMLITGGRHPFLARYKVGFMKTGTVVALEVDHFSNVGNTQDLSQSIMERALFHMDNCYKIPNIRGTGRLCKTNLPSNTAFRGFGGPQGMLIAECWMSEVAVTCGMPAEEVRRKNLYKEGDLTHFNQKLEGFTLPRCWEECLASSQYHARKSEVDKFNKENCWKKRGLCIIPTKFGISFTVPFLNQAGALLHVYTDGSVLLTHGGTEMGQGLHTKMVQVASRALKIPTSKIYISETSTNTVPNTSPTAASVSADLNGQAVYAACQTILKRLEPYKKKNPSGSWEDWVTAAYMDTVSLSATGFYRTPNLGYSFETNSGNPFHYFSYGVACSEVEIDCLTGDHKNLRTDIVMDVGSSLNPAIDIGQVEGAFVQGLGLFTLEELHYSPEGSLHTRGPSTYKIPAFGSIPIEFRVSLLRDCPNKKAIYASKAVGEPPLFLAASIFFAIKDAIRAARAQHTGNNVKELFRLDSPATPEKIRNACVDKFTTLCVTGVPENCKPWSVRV

With `COc1c(O)cc2oc3cc(O)c(CC=C(C)C)c(O)c3c(=O)c2c1CC=C(C)C` [MANGOSTIN], the Activity in assay [1] is 3.7 µmol/min; in assay [3] it was 2.4 mmol/L; in assay [4] it was “Tde”; in [7], 11.2 mL/min; in assay [8] it was 0.8 mmol/L; in assay [9], 54.4 µmol/L. Further, the Activity in assay [10] was found to be 2.4 mmol/L. Further, in assay [2], the inhibition (as a rule, the percentage by which the read-out fell short of the control) at 50 µg/mL turned out to be 4.9%. Also, the inhibition at 150 µg/mL in [5] turned out to be 1.4%. Besides, the inhibition in assay [6] was determined as 2.6%.
